Like-named read-outs stand apart in the source and are kept apart here.
Columns and labels:
[1] = cited from earlier work

Row | Compound | reported pH of ascorbic acid in water ([1]; 5 mg/ml) | reported pH of ascorbic acid in water ([1]; 50 mg/ml) | NNC equivalent in the standard tablet formulation (equivalent of 152 ppb in API) | highest level of NNC observed in representative batches of drug substance (API) (storage about 10 months to about 8 years after manufacture)
1 | O=C1O[C@H]([C@@H](O)CO)C(O)=C1O [ascorbic acid] | 3 | 2 |  | 
2 | O=c1cccc2n1C[C@@H]1CNC[C@H]2C1 [drug substance (API), cytisine] |  |  | approximately 0.46 ng/tablet | 152 ppb

— US20250186416A1, “SMOKING CESSATION COMPOUNDS HAVING REDUCED NITROSAMINES AND ASSOCIATED METHODS” (Achieve Life Sciences, Inc., priority 2023, published 2025)
